Drawing on PubChem BioAssay (NCI), this text covers TGI for eight compounds.

Test in all cases: inhibition of tumour cell growth, NCI panel, 48 h
Experiment [1] has as its system HS 578T breast.
In experiment [2] the test system is SF-268 CNS.
In experiment [3] the test system is U251 CNS.
Experiment [4] relates to SN12C renal.
Experiment [5] relates to HCT-116 colon.
The test system of experiment [6] is MDA-N.
Experiment [7] concerns K-562 leukemia.
The test system of experiment [8] is OVCAR-5 ovarian.
Experiment [9] concerns 786-0 renal.
Experiment [10] has as its system KM12 colon.
For experiment [11], the system named is UACC-62 melanoma.
Experiment [12] concerns CAKI-1 renal.
For experiment [13], the system named is NCI-H23 lung.
For experiment [14], the system named is ACHN renal.
The test system of experiment [15] is COLO 205 colon.
Experiment [16] has as its system HOP-62 NSCLC.
For experiment [17], the system named is A549 NSCLC.
Experiment [18] concerns DU-145 prostate.
The subject of experiment [19] is BT-549 breast.

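Test compounds were applied to cells in 96-well plates for 48 hours at 5 doses. TGI denotes the concentration required for complete inhibition of growth.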 Where a SMILES comes first, the peptide text is derived from it. [ ]: non-standard residue; d: D form. Phe(4-NO2) = N[CH](Cc1ccc([N+](=O)[O-])cc1)C(=O)O

For `C=C(C)[C@@]1(O)CCCC[C@@H]1CC(Sc1ccccc1)Sc1ccccc1`, the TGI in experiment [1] is 35.1 µM; in [2] it was 31.1 µM; in experiment [3], 53.9 µM; in [4] it was 32.4 µM; in [5] it was 30.2 µM; in experiment [6], 47.8 µM. Besides, the TGI was 44.4 µM in [7]; 30.7 µM in experiment [8]; 39.9 µM in experiment [9]; 35.1 µM in experiment [10]; more than 100 µM in experiment [11]; 28.8 µM in experiment [12]. The TGI is 29.9 µM in [13]; more than 100 µM in [14]; 31 µM in experiment [15]; 35 µM in experiment [16]; 34.4 µM in experiment [17]; 30.1 µM in experiment [18].

With `COc1ccc(Cc2c(=O)[nH]nc3ccccc23)cc1`, the TGI in experiment [2], in experiment [4], in [5], in experiment [7], in experiment [8] and in experiment [9] was more than 100 µM each time. Also, the TGI in experiment [10], in experiment [11], in experiment [12], in [13], in experiment [14] and in [15] was more than 100 µM throughout. Besides, the TGI in experiment [16] and in [17] was more than 100 µM in each case.

With `CC(=NNC(=S)Nc1cccc(C)c1)c1cccc(C(C)=NNC(=S)Nc2cccc(C)c2)n1`, the TGI was more than 100 µM in experiment [1]; more than 100 µM in experiment [2]; 93.3 µM in [3]; more than 100 µM in [4]; 37.8 µM in [5]; more than 100 µM in [6]. For the same compound, the TGI in experiment [7] was more than 100 µM; in experiment [8], more than 100 µM; in experiment [9] it was 63.6 µM; in [10] it was 59.3 µM; in experiment [11], more than 100 µM; in [12], 71.1 µM. Further, the TGI in [13] was more than 100 µM; in experiment [14] it was 46.4 µM; in experiment [15], 38.5 µM; in experiment [16], more than 100 µM; in [17], 87.1 µM; in [18] it was more than 100 µM.

With `O=C1/C(=C/c2ccco2)N=C2Sc3c(nc[nH]c3=O)N12`, the TGI in [1], in [2], in experiment [3], in experiment [4], in experiment [5] and in experiment [6] was more than 100 µM each time. For the same compound, the TGI in [7], in [8], in [9], in experiment [10], in experiment [12] and in experiment [13] was more than 100 µM each time. Moreover, the TGI in [14], in experiment [15], in experiment [16], in experiment [17] and in experiment [18] was more than 100 µM throughout.

Regarding `CC(NC(=O)C(Cc1ccc([N+](=O)[O-])cc1)NC(=O)C(N)CCCCN)C(=O)NC(Cc1ccc([N+](=O)[O-])cc1)C(N)=O` (stereo not given) (H-K[Phe(4-NO2)]A[Phe(4-NO2)]-NH2; configuration not given here), the TGI in experiment [1] was 99.6 µM; in experiment [2], more than 100 µM; in [3], more than 100 µM; in [4], more than 100 µM; in experiment [5], more than 100 µM; in experiment [7] it was more than 55.3 µM. The TGI in experiment [8] is more than 100 µM; in [9], more than 100 µM; in experiment [10], more than 57.4 µM; in [11] it was more than 100 µM; in [19], more than 54 µM; in [12] it was more than 100 µM. In addition, the TGI in experiment [13] is more than 100 µM; in experiment [14], more than 100 µM; in [15], more than 100 µM; in experiment [16] it was more than 52.1 µM; in experiment [17] it was more than 97 µM; in [18], more than 100 µM.

For `[N-]=[N+]=Nc1c(Cl)c(Cl)nc2ccccc12`, the TGI in [1], in experiment [2], in experiment [4], in experiment [5], in experiment [6] and in experiment [7] was more than 100 µM each time. Besides, the TGI was more than 100 µM in experiment [8]; more than 100 µM in [9]; more than 100 µM in [10]; more than 100 µM in experiment [11]; 57.8 µM in [12]; more than 100 µM in experiment [13]. The TGI in [14], in [15], in [16], in experiment [17] and in experiment [18] was more than 100 µM throughout.

Regarding `O=C(CC(C(=O)c1cccs1)c1ccsc1)c1ccccc1` (stereo not given), the TGI in experiment [1], in [2], in [3], in experiment [4], in experiment [5] and in experiment [6] was more than 100 µM each time. The TGI in experiment [8] was more than 100 µM; in experiment [9], more than 100 µM; in [10], more than 100 µM; in experiment [11] it was more than 100 µM; in [12], more than 100 µM; in [13], 85.4 µM. In addition, the TGI in experiment [14] is more than 100 µM; in experiment [15] it was more than 100 µM; in experiment [16] it was more than 100 µM; in experiment [17] it was 66.2 µM; in experiment [18], more than 100 µM.

Take `COc1ccc2nc3c([N+](=O)[O-])ccc(NCCCN(C)C)c3c(NCCCN(C)C)c2c1`: the TGI in experiment [2] was more than 10 µM; in experiment [4] it was 2.63 µM; in experiment [7] it was 5.89 µM; in [9], 2.13 µM; in [10], 2.54 µM; in [11], more than 10 µM. The TGI in [12] was 3.98 µM; in experiment [13], 3.46 µM; in experiment [16], 3.07 µM; in experiment [17] it was 3.43 µM; in experiment [18], more than 10 µM.
